Experimental data published in paper PMC6515479, “An Investigation on Glucuronidation Metabolite Identification, Isozyme Contribution, and Species Differences of GL-V9 In Vitro and In Vivo” (Molecules, 2019).

Key:
Format in all cases: in vitro ADME
rUGT2B17 = target: T1, rUGT2B17 (Homo sapiens, UniProt O75795); assay: UGT phenotyping of GL-V9 glucuronidation, rUGT2B17; conditions: GL-V9 0.5, 1, 5 μM, 37 °C, 1 h
T1 construct: purchased Corning (Woburn, MA, USA)
T1 sequence (O75795 24-530): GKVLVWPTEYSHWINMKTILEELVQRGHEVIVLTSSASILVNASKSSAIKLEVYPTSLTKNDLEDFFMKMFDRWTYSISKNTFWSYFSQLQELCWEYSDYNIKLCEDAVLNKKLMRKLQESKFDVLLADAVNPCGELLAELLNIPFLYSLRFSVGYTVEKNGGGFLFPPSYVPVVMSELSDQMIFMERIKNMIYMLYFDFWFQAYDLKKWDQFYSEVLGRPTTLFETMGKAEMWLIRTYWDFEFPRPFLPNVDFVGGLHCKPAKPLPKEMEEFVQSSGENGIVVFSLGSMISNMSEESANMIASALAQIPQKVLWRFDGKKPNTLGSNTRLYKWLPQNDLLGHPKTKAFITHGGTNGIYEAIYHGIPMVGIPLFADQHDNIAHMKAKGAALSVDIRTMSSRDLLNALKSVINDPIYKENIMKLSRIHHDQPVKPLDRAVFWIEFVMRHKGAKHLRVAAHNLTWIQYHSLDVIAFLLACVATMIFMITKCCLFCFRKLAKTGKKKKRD
Procedure: (§1) The composition of the incubation system (200 μL) contained liver microsomes of different species (0.1 mg protein/mL), 5 mM saccharolactone (D-saccharic acid 1,4-lactone monohydrate), 10 mM MgCl2, alamethicin (50 μg/mg protein), Tris-HCl buffer (50 mM, pH 7.4) and GL-V9 (1 μM). After 5 min of preincubation at 37 °C, UDPGA (5 mM) was added to initiate the phase II reaction. Control incubation samples were performed without UDPGA or without substrates (GL-V9). The reaction was terminated by addition of ice-cold methanol (three volumes) after incubation for 1 h at 37 °C. Samples were vortexed, centrifuged at 21,500× g for 10 min and then stored at 4 °C until HPLC-UV-TripleTOF analysis. To confirm that these metabolites are conjugates resulting from glucuronidation reaction, enzymatic hydrolysis of samples was processed. β-glucuronidase (100 KU, Sigma) was added and the hydrolysis was performed overnight at 37 °C. The control samples were carried out without β-glucuronidase under the same condition.
(§2) Twelve human recombinant UGT isoforms (rUGT1A1, rUGT1A3, rUGT1A4, rUGT1A6, rUGT1A7, rUGT1A8, rUGT1A9, rUGT1A10, rUGT2B4, rUGT2B7, rUGT2B15, and rUGT2B17) were employed to identify the main UGT enzyme(s) responsible for glucuronidation of GL-V9 under mixture conditions as described in Section 4.3. […]

[1] = tested on: beagle dog liver microsomes (DLMs); assay: Enzyme kinetics of GL-V9 glucuronidation in beagle dog liver microsomes (DLMs); conditions: formation of 5-O-glucuronide GL-V9, protein 0.1 mg/mL, mean ± SD, n = 3
Procedure: as §1
(§3) Enzyme kinetics experiments were carried out in triplicate among five different species, including monkey, beagle dog, rat, mouse, and human. The reaction system and operations are as same as described in Section 4.3. The solutions of GL-V9 were selected over a range of concentrations (0.05, 0.2, 0.5, 1, 2, 5, 10, 20 μM). […]

[2] = as above; conditions: beagle, dog, liver microsomes, pH 7.4, formation of 5-O-glucuronide GL-V9, protein 0.1 mg/mL, mean ± SD, n = 3
Procedure: as §1, §3

rUGT1A6 = target: T2, rUGT1A6 (Homo sapiens, UniProt P19224); assay: UGT phenotyping of GL-V9 glucuronidation, rUGT1A6; conditions: GL-V9 0.5, 1, 5 μM, 37 °C, 1 h
T2 construct: purchased Corning (Woburn, MA, USA)
T2 sequence (P19224 27-532): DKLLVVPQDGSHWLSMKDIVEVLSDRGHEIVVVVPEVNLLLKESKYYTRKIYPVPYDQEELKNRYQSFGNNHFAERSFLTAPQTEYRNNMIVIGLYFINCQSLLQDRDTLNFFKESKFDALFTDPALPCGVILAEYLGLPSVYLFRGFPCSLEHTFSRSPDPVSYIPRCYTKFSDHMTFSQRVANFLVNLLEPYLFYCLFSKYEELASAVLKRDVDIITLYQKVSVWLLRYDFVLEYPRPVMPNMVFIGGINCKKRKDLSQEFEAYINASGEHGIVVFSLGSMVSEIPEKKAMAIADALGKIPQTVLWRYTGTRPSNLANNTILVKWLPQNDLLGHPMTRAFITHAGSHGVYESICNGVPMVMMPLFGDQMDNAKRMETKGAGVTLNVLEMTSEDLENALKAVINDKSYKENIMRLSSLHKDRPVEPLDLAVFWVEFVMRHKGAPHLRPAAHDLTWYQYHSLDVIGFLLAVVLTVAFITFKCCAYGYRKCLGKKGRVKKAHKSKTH
Procedure: as §1, §2

[3] = Enzyme kinetics of GL-V9 glucuronidation in rat liver microsomes (RLMs); conditions: rat, liver microsomes, pH 7.4, formation of 5-O-glucuronide GL-V9, protein 0.1 mg/mL, mean ± SD, n = 3
Procedure: as §1, §3

[4] = tested on: rat liver microsomes (RLMs); assay: as above; conditions: formation of 5-O-glucuronide GL-V9, protein 0.1 mg/mL, mean ± SD, n = 3
Procedure: as §1, §3

[5] = Enzyme kinetics of GL-V9 glucuronidation in mouse liver microsomes (MiceLMs); conditions: mouse, liver microsomes, pH 7.4, formation of 5-O-glucuronide GL-V9, protein 0.2 mg/mL, mean ± SD, n = 3
Procedure: as §1, §3

[6] = tested on: mouse liver microsomes (MiceLMs); assay: as above; conditions: formation of 5-O-glucuronide GL-V9, protein 0.2 mg/mL, mean ± SD, n = 3
Procedure: as §1, §3

- Catalytic activity in the production of 5-O-glucuronide GL-V9 (rUGT2B17): did not show apparent catalytic activity
- Vmax [1]: 22.03 ± 0.42 pmol/min/mg
- Km at 1 h [2]: 12.5 ± 1.43 µM
- Metabolism rate (glucuronidation) (rUGT1A6): too low to be biologically relevant
- Km at 1 h [3]: 6.54 ± 0.33 µM
- Vmax [4]: 32.72 ± 1.45 pmol/min/mg
- Km at 1 h [5]: 20.1 ± 1.04 µM
- Vmax [6]: 153.2 ± 10.44 pmol/min/mg
Compound: COc1c(OCCCCN2CCCC2)cc(O)c2c(=O)cc(-c3ccccc3)oc12 [GL-V9]
